“Also recorded” adds a separate entry of the source. Marks after values point to notes of the source that are not given here.
Tests used:
[1] = test system: Salmonella typhimurium histidine auxotroph mutants TA97, TA98, TA100 and TA102; assay type: cell-based
Procedure: Bacterial Reverse Mutation Test on I-20
Bacterial reverse mutation test on compound I-20 was performed on Salmonella typhimurium histidine auxotroph mutants TA97, TA98, TA100 and TA102 (purchased from MolTox company) using conventional procedures of Ames test.
Observation period: colony counting was done 48 hours after cultivation at 37° C.
Drug solutions with different concentrations were prepared with double distilled water, and the doses were 5, 50, 500, 1000, 5000 μg/plate.
Direct effect of the test drug in the absence of metabolic activity was determined by standard plate incorporation assay. The composition of the test top layer was: 2.0 ml top layer, 0.1 ml drug solution, 0.1 ml bacteria solution and 0.5 ml phosphate buffer.
Pre-incubation was used in the determination of the drug's mutagenic effect in the presence of metabolic activity. The composition of the test top layer is: 2.0 ml top layer, 0.1 ml drug solution, 0.1 ml bacteria solution and 0.5 ml S9 mix.
The resulting drug solution, bacterial solution and S9 mix were first incubated at 35° C. for 30 min while shaking, and then tested according to standard plate incorporation assay. Each dose was tested in three plates, each mutant was tested in the absence or presence of metabolic activity (−S9 or +S9) and repeated twice, the number of revertant colonies was calculated as x±SD.
Results: the test included two parts, −S9 and +S9. […] Other doses had no bacteristatic effect to all strains, and the background growth was good.

[2] = test system: Kunming mice; experiment: Acetic acid-induced abdominal writhing test in mice; assay type: in vivo; conditions: 1 h before 0.7% acetic acid i.p.
Procedure: Acetic Acid-Induced Abdominal Writhing Test in Mice
Kunming mice, SPF KM mice purchased from […] SLAC LABORATORY ANIMAL CO. LTD and kept in normal environment.
(§1) 2. Modes of Administration
The compounds were dissolved in water for injection at a concentration of 4 mg/ml, 2 mg/ml and 1 mg/ml and were given intragastrically to animals.
(§2) Three different doses (10, 20, and 40 mg/kg) were administered to the test groups.
Aspirin was used as a positive control and acetic acid writhing test was used.
30 mice (half male and half female) weighing 18-23 g were divided into five groups, including negative control group, positive control group, low dose group, medium dose group and high dose group:
Mice in test group received test drug (10 mg/kg, 20 mg/kg, 40 mg/kg) via intragastric administration. Negative control group received physiological saline (20 ml/kg) via oral administration. Positive control group received aspirin (200 mg/kg) via oral administration. One hour later, each group received 0.7% acetic acid 10 ml/kg intraperitoneally. Five minutes later, the number of writhes was counted within the subsequent 15 min period; inhibition percentage of writhing response in each test group was calculated by the following equation: […]

[3] = test system: Kunming mice; experiment: Hot-plate test in mice; assay type: in vivo; conditions: 1 h post dose, hot plate 55° C.
Procedure: Kunming mice, SPF KM mice were purchased from […] SLAC LABORATORY ANIMAL CO. LTD and kept in normal environment.
as §1
The compounds were dissolved in water for injection at a concentration of 4 mg/ml, 2 mg/ml and 1 mg/ml and were given subcutaneously to animals.
as §2
Morphine was used as a positive control and hot plate test was used.
30-40 mice (half male and half female) weighing 18-23 g were used. First, each mouse was placed on a hot plat at 55° C. to determine basic pain threshold for 2-3 times. Those animals with basic pain threshold of 5-30 s were qualified, unqualified mice were not used. 30 qualified mice were divided into five groups, including negative control group, positive control group, low-dose group, medium-dose group and high-dose group:
Mice in test groups received test sample solution (10 mg/kg, 20 mg/kg, 40 mg/kg) via subcutaneous injection in the neck. Positive control group received subcutaneous injection of morphine (2 mg/kg). One hour later, pain threshold values were determined for mice in each group as post-drug pain threshold. Percentage increase in pain threshold was calculated according to the following equation: […]

[4] = molecular target: opioid receptor subtype δ (Homo sapiens, UniProt P41143); experiment: Competitive radioligand binding ([3H]Diprenorphine), opioid receptor subtype δ
Sequence of opioid receptor subtype δ (P41143 whole entry): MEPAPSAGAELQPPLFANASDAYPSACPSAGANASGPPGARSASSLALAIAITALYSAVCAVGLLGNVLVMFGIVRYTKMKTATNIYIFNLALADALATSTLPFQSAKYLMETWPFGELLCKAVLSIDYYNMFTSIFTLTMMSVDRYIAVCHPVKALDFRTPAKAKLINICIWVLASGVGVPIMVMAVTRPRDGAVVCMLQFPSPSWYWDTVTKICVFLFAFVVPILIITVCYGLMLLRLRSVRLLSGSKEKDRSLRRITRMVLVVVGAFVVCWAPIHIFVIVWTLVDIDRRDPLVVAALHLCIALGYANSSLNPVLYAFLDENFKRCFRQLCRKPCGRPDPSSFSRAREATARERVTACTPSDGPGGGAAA
Procedure: (§3) Competitive Binding Between the Compounds and Opioid Receptor Subtypes μ, δ, κ
(§4) The respective test compounds were added to the sample tube (final concentration of 10^−5M), incubated at 37° C. for 30 min and placed in ice bath to terminate the reaction. The reaction mixture was filtered through GF/C(Whatman) glass fiber filter by vacuum filtration on a Millipore sample collector. The filter was washed three times with 50 mM Tris-HCl (pH7.4), each with 4 ml; dried and transferred into a 0.5 ml Eppendorf tube, in which 0.5 ml lipophilic scintillation fluid was added. Radioactivity was detected by a LS6500 scintillation counter. Each concentration had three duplicate test tubes and each separate test was repeated 3 to 4 times.
(§5) Specific binding CMP value for each sample tube=overall binding CPM value for each sample tube-CPM value of non-specific binding tube. [Inhibition percentage of competitive binding between the test compound and different opioid receptor subtypes (%)=(100%−specific binding (CPM value) of sample tube/specific binding (CPM value) of solvent group×100%)]
Average was taken for each test drug from three duplicate tubes; each test was repeated two or more times. Data were presented as mean±SE and statistical comparison was made by ANOVA.

[5] = Animal model study of compound I-20 (summary statements)
[6] = in vivo; conditions: mouse, po, mice
Text: Studies of Acute Toxicity of the Compound I-1 and I-20
For statistics of 1-20, Bliss method was used (“Experimental Design and Statistical Basis for Drug Evaluation”, Changxiao Liu, Ruiyuan Su, first edition, Military Medical Science Press, 1993, 80-90).

[7] = molecular target: opioid receptor subtype κ (Homo sapiens, UniProt P41145); experiment: biochemical; assay type: binding
Sequence of opioid receptor subtype κ (P41145 whole entry): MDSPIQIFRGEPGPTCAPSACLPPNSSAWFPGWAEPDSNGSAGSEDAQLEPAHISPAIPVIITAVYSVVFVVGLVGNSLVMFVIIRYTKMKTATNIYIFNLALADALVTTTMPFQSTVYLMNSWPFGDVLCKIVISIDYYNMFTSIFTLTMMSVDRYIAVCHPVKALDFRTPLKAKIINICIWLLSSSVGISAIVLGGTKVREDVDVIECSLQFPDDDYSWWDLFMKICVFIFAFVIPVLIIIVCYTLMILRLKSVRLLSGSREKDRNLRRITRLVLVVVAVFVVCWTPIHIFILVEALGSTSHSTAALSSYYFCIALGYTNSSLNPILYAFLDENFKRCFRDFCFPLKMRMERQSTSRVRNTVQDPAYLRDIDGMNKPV
Procedure: as §3, §4, §5
(§6) Average was taken for each test drug from three duplicate tubes; each test was repeated two or more times.

[8] = molecular target: opioid receptor subtype μ (Homo sapiens, UniProt P35372); experiment: biochemical; assay type: binding
Sequence of opioid receptor subtype μ (P35372 whole entry): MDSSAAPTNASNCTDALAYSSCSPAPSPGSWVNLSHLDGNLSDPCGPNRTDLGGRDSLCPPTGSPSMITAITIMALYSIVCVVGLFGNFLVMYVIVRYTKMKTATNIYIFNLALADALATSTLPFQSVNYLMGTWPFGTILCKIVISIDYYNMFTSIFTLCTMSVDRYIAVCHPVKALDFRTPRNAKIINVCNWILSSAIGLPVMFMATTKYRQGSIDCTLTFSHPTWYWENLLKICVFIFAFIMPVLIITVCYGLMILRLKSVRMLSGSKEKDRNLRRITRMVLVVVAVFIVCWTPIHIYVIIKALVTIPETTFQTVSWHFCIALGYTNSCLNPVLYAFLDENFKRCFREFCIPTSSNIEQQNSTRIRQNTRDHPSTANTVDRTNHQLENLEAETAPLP
Procedure: as §3, §4, §5, §6

SMILES: COc1ccccc1N1CCN([C@H](C)[C@H](O)c2ccccc2)CC1 (racemic) [Compound I-20, (1RS,2RS)-1-phenyl-2-(4-(2-methoxyphenyl)piperazinyl)-propan-1-ol]
- Ames test result ([1]; TA97, TA98, TA100, TA102, −S9 and +S9, 5-5000 μg/plate): negative
- Bacteristatic effect on test strains ([1]; TA98 in −S9 test system and TA97 in +S9 test system): bacteristatic effects
- Increase in the number of revertant colonies ([1]; −S9 and +S9, 5, 50, 500, 1000, 5000 μg/plate): None of the tested dose resulted in significant increase
- Inhibition percentage of writhing response ([2]; 10 mg/kg Ig): 46.61%
- Inhibition percentage of writhing response ([2]; 20 mg/kg Ig): 72.03 * %
- Inhibition percentage of writhing response ([2]; 40 mg/kg Ig): 64.41%
- Percentage increase in pain threshold ([3]; 10 mg/kg S.c.): 63.29 * %
- Percentage increase in pain threshold ([3]; 20 mg/kg S.c.): 80.88 * %
- Percentage increase in pain threshold ([3]; 40 mg/kg S.c.): 186.25 ** %
- Affinity to opioid receptor subtype δ (in words) [4]: no obvious affinity
- inhibition at 10 µM ([4]; read-out: Inhibition percentage of competitive binding, δ): 0%
- Analgesic effect (in words) ([5]; animal model study): obvious analgesic effect
- Potential for drug dependence ([5]; in vivo): low potential for drug dependence
- Drug resistance after multiple applications ([5]; multiple applications): No drug resistance is observed
- Absorption with oral administration (in words) ([5]; oral administration): well absorbed; also recorded: good absorption
- LD50 [6]: 674 mg/kg
- Affinity to opioid receptor subtype κ (in words) [7]: no obvious affinity
- inhibition at 10 µM ([7]; test concentration 10^−5 mol/L, [3H]Diprenorphine 0.4 nM, mean±SE, read-out: Inhibition percentage of competitive binding, κ): 8.9 ± 0.2%
- Affinity to opioid receptor subtype μ (in words) [8]: no obvious affinity
- inhibition at 10 µM ([8]; test concentration 10^−5 mol/L, [3H]Diprenorphine 0.4 nM, mean±SE, read-out: Inhibition percentage of competitive binding, μ): 13.4 ± 2.1%

Reference: patent US8778948B2, “Substituted phenylpiperazinyl aralkylalcohol derivatives, pharmaceutical compositions containing such derivatives and uses thereof” (priority 2008, dated 2014)
